This note sets out measurements from ChEMBL document CHEMBL1201862, “PubChem BioAssay data set” (2004).

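96-well plates; 48 h exposure; 5 concentrations. Endpoints by linear interpolation between flanking doses. Not reached: highest tested concentration assigned. At the GI50, growth is halved.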 Active and inactive are the calls of the source. Cut-off read from the data, not from the text of the source: active = GI50 up to about 1.1 µM and inactive = higher.

Holding throughout (test): NCI tumour cell line growth inhibition, 48 h
The test system of assay [1] is SK-OV-3.
Assay [2] deals with NCI-H522.
Assay [3] deals with HOP-92.
For assay [4], the system named is OVCAR-4.
Assay [5] relates to KM12.
The subject of assay [6] is M14.
The subject of assay [7] is BT-549.
For assay [8], the system named is SF-295.
The subject of assay [9] is K562.
In assay [10] the test system is HCT-116.
The subject of assay [11] is SK-MEL-2.
Assay [12] deals with U-251.
For assay [13], the system named is PC-3.
The subject of assay [14] is SF-268.
Assay [15] deals with UO-31.
Assay [16] concerns MDA-N.
The subject of assay [17] is IGROV-1.
Assay [18] relates to NCI-H226.
Assay [19] has as its system HOP-62.
The subject of assay [20] is OVCAR-8.

Regarding `COc1ccc(Cn2c3ccc([N+](=O)[O-])cc3c(=O)n2Cc2ccccn2)cc1`, the GI50 was > 100 µM (inactive) in assay [1]; 66.4 µM (inactive) in assay [2]; 90.6 µM (inactive) in [3]; 56.1 µM (inactive) in assay [4]; 92.5 µM (inactive) in [5]; 46 µM (inactive) in assay [6]. For the same compound, the GI50 in assay [7] was > 100 µM (inactive); in assay [8], > 100 µM (inactive); in [9] it was 67 µM (inactive); in assay [10], > 100 µM (inactive); in assay [11] it was > 100 µM (inactive); in assay [12] it was > 100 µM (inactive). In addition, the GI50 was 85.9 µM (inactive) in assay [13]; > 100 µM (inactive) in assay [14]; > 100 µM (inactive) in [15]; 40.6 µM (inactive) in [16]; > 100 µM (inactive) in assay [17]; > 100 µM (inactive) in [18]. The GI50 in [19] was > 100 µM (inactive); in assay [20], 57.7 µM (inactive).
For `Cc1ccnc2nc(-c3ccc(Cl)cc3)cc(O)c12`, the GI50 is 3.86 µM (inactive) in [1]; 2.58 µM (inactive) in assay [2]; 2.17 µM (inactive) in assay [3]; > 23.8 µM (inactive) in assay [4]; 3.16 µM (inactive) in assay [5]; 8.63 µM (inactive) in [6]. Moreover, the GI50 in assay [7] was > 100 µM (inactive); in [8] it was 4.38 µM (inactive); in assay [9], 1.89 µM (inactive); in assay [10], 4.46 µM (inactive); in assay [11] it was 72.4 µM (inactive); in [12], 4.07 µM (inactive). For the same compound, the GI50 in assay [13] is 2.89 µM (inactive); in assay [14], 28.4 µM (inactive); in assay [15], 13.1 µM (inactive); in assay [16], 0.752 µM (active); in [17], 3.01 µM (inactive); in [18], 5.16 µM (inactive). Besides, the GI50 in assay [19] was 8.41 µM (inactive); in assay [20], > 27 µM (inactive).
For `O=C(C[C@@H]1NCCC[C@H]1O)Cn1cnc2cc(Br)c(Cl)cc2c1=O`, the GI50 was < 0.0118 µM (active) in [1]; < 0.0147 µM (active) in [2]; 0.0304 µM (active) in [3]; 0.0186 µM (active) in [4]; 0.0171 µM (active) in assay [5]; 0.0178 µM (active) in assay [6]. Moreover, the GI50 in assay [7] was 0.0347 µM (active); in assay [8], 0.024 µM (active); in assay [9] it was 0.0216 µM (active); in [10], 0.023 µM (active); in assay [11], 0.0148 µM (active); in assay [12] it was 0.0252 µM (active). For the same compound, the GI50 in assay [13] was 0.0351 µM (active); in assay [14], 0.0315 µM (active); in assay [15], 0.0376 µM (active); in [16] it was 0.0138 µM (active); in assay [17] it was 0.0296 µM (active); in assay [18] it was < 0.0115 µM (active). Moreover, the GI50 in assay [19] was 0.0279 µM (active); in assay [20] it was < 0.0117 µM (active).
Take `CC12O[C@]3([C@H](C(=O)N4CCOC43C)[C@H]1Cl)[C@H]1O[C@H]12` (stereo not given in full): the GI50 in [1], in [2], in [3], in assay [4], in [5] and in assay [6] was > 100 µM (inactive) in each case. The GI50 in assay [7] is > 100 µM (inactive); in assay [8] it was > 100 µM (inactive); in assay [9], 98.6 µM (inactive); in [10] it was > 100 µM (inactive); in assay [11], > 100 µM (inactive); in [12] it was > 100 µM (inactive). The GI50 in assay [13], in [14], in [15], in assay [16], in assay [17] and in assay [18] was > 100 µM (inactive) each time. Also, the GI50 in assay [19] and in assay [20] was > 100 µM (inactive) each time.
As to `OC(CC(c1ccccc1)c1ccc(Cl)cc1)c1ccc(Cl)cc1` (stereo not given), the GI50 in assay [1] is 36.1 µM (inactive); in [2], 25.1 µM (inactive); in assay [3], 26.4 µM (inactive); in [4], 31.3 µM (inactive); in [5], 30.8 µM (inactive); in assay [6] it was 37.3 µM (inactive). In addition, the GI50 was 56.6 µM (inactive) in [7]; 34 µM (inactive) in assay [8]; 32.4 µM (inactive) in [9]; 31.3 µM (inactive) in assay [10]; 24 µM (inactive) in assay [11]; 39.7 µM (inactive) in assay [12]. In addition, the GI50 in assay [13] is 34.9 µM (inactive); in assay [14] it was 37.1 µM (inactive); in assay [15] it was 33.3 µM (inactive); in [16] it was 29 µM (inactive); in assay [17], 35.8 µM (inactive); in assay [18] it was 31.6 µM (inactive). In addition, the GI50 in assay [19] is 36.4 µM (inactive); in assay [20] it was 36.8 µM (inactive).
Regarding `COc1ccc2nc(NC(=O)/C(C#N)=C/c3ccccc3)sc2c1`, the GI50 was > 70.6 µM (inactive) in assay [1]; 15.2 µM (inactive) in assay [2]; 32.7 µM (inactive) in assay [3]; 37.6 µM (inactive) in assay [4]; > 41.7 µM (inactive) in [5]; > 54.1 µM (inactive) in assay [6]. Also, the GI50 was 52.2 µM (inactive) in assay [7]; 55.6 µM (inactive) in assay [8]; 23.5 µM (inactive) in assay [9]; 24.7 µM (inactive) in assay [10]; > 100 µM (inactive) in assay [11]; 50.1 µM (inactive) in assay [12]. Besides, the GI50 in assay [13] is > 61 µM (inactive); in assay [14] it was > 56.5 µM (inactive); in assay [15], 36.8 µM (inactive); in [16], 34.8 µM (inactive); in [17] it was 29.4 µM (inactive); in [18], > 58.2 µM (inactive). The GI50 in [19] is > 64.1 µM (inactive); in [20], > 51.6 µM (inactive).
Regarding `COc1cc([C@@H]2c3cc4c(cc3[C@@H](OC3OC5COC(C)OC5C(OC(=O)CN5CCN(C)CC5)C3OC(=O)CN3CCN(C)CC3)C3COC(=O)[C@@H]32)OCO4)cc(OC)c1OC(=O)CN1CCN(C)CC1` (stereo not given in full), the GI50 in assay [1] is > 100 µM (inactive); in assay [2], 27.2 µM (inactive); in assay [3], > 100 µM (inactive); in assay [4], > 100 µM (inactive); in [5], > 100 µM (inactive); in assay [6], 55.8 µM (inactive). The GI50 was 34.4 µM (inactive) in [7]; 38.1 µM (inactive) in [8]; 67.5 µM (inactive) in assay [9]; 25.5 µM (inactive) in assay [10]; > 100 µM (inactive) in assay [11]; 26.9 µM (inactive) in assay [12]. The GI50 in assay [13] was > 100 µM (inactive); in assay [14], 75.3 µM (inactive); in [15] it was 68.9 µM (inactive); in assay [16], > 100 µM (inactive); in assay [17], 72.3 µM (inactive); in assay [18] it was 50.4 µM (inactive). Also, the GI50 in [19] was 40.2 µM (inactive); in assay [20], 60.8 µM (inactive).
As for `CCc1nnc2sc(-c3ccc(-c4ccccc4[N+](=O)[O-])o3)nn12`, the GI50 is 40 µM (inactive) in assay [1]; 37.4 µM (inactive) in assay [2]; 84.7 µM (inactive) in assay [3]; 53.1 µM (inactive) in assay [4]; 30.8 µM (inactive) in [5]; 37.6 µM (inactive) in assay [6]. Further, the GI50 in assay [7] is 36.6 µM (inactive); in assay [8], 32.6 µM (inactive); in assay [9], 27.7 µM (inactive); in [10], 37.3 µM (inactive); in [11] it was 28.1 µM (inactive); in assay [12], 40.6 µM (inactive). Besides, the GI50 in [13] is 42.9 µM (inactive); in assay [14], 49.1 µM (inactive); in assay [15] it was 41.9 µM (inactive); in assay [16], 19.9 µM (inactive); in assay [17], 47.9 µM (inactive); in [18] it was 14.4 µM (inactive). Also, the results for the GI50 in [19] and in assay [20] were 87.9 µM (inactive) and 50.7 µM (inactive), respectively.
In the case of `O=C1C2=C(c3ccccc31)C(c1ccccc1)N1C(=O)CSC1=N2` (stereo not given), the GI50 is > 70.6 µM (inactive) in [1]; 29.4 µM (inactive) in assay [2]; 32.6 µM (inactive) in [3]; 35.3 µM (inactive) in [4]; > 53.6 µM (inactive) in [5]; 49.4 µM (inactive) in [6]. For the same compound, the GI50 is 24.5 µM (inactive) in assay [7]; 41.5 µM (inactive) in assay [8]; 37.2 µM (inactive) in assay [9]; > 56.4 µM (inactive) in [10]; 49 µM (inactive) in [11]; > 63 µM (inactive) in assay [12]. In addition, the GI50 in assay [13] was 34.4 µM (inactive); in assay [14], 58.1 µM (inactive); in [15], 34.8 µM (inactive); in [16], 17 µM (inactive); in assay [17] it was > 57.4 µM (inactive); in [18], 38.5 µM (inactive). The GI50 in [19] is 83.8 µM (inactive); in assay [20], > 71.8 µM (inactive).
For `CN(/N=C/c1ccccc1O)c1ccc2ccccc2n1`, the GI50 was 16.3 µM (inactive) in assay [1]; 24.9 µM (inactive) in assay [2]; 35.3 µM (inactive) in assay [3]; 20.3 µM (inactive) in assay [4]; 21.3 µM (inactive) in assay [5]; 27.1 µM (inactive) in [6]. For the same compound, the GI50 in [7] was 23.6 µM (inactive); in assay [8] it was 16.2 µM (inactive); in assay [9] it was 60.3 µM (inactive); in assay [10], 48.3 µM (inactive); in [11], 35.6 µM (inactive); in [12], 16.3 µM (inactive). Further, the GI50 in [13] is 17.5 µM (inactive); in assay [14] it was 22.5 µM (inactive); in assay [15] it was 20.8 µM (inactive); in assay [16], 52.2 µM (inactive); in assay [17], 11.3 µM (inactive); in assay [18], 78 µM (inactive). Moreover, the GI50 in [19] was 16.4 µM (inactive); in assay [20] it was 33.8 µM (inactive).
